# Results published in ChEMBL document CHEMBL5303573, “Mapping human microbiome drug metabolism by gut bacteria and their genes” (Nature, 2019).
# Legend:
# [1] = The drug is tested on Bifidobacterium longum subsp. Infantis strain: CCUG52486 for biotransformation. The drug concentrations were measured before and after a 12-h incubation by liquid-chromatography-coupled mass spectrometry (LC–MS); details: 2 µM
# [2] = The drug is tested on Collinsella intestinalis strain: DSM13280 for biotransformation. The drug concentrations were measured before and after a 12-h incubation by liquid-chromatography-coupled mass spectrometry (LC–MS); details: 2 µM
# [3] = The drug is tested on Bacteroides pectinophilus strain: ATCC43243 for biotransformation. The drug concentrations were measured before and after a 12-h incubation by liquid-chromatography-coupled mass spectrometry (LC–MS); details: 2 µM
# [4] = The drug is tested on Bacteroides sp. WH2 strain: WH2 for biotransformation. The drug concentrations were measured before and after a 12-h incubation by liquid-chromatography-coupled mass spectrometry (LC–MS); details: bacteroides sp. wh2, 12 h, 2 µM
# [5] = The drug is tested on Bacteroides xylanisolvens strain: DSM18836 for biotransformation. The drug concentrations were measured before and after a 12-h incubation by liquid-chromatography-coupled mass spectrometry (LC–MS); details: 2 µM
# [6] = The drug is tested on Blautia hansenii strain: DSM20583 for biotransformation. The drug concentrations were measured before and after a 12-h incubation by liquid-chromatography-coupled mass spectrometry (LC–MS); details: 2 µM
# [7] = The drug is tested on Clostridium symbiosum strain: ATCC14940 for biotransformation. The drug concentrations were measured before and after a 12-h incubation by liquid-chromatography-coupled mass spectrometry (LC–MS); details: 2 µM
# [8] = The drug is tested on Eubacterium hallii strain: DSM3353 for biotransformation. The drug concentrations were measured before and after a 12-h incubation by liquid-chromatography-coupled mass spectrometry (LC–MS); details: anaerobutyricum hallii, 2 µM
# [9] = The drug is tested on Eubacterium ventriosum strain: ATCC27560 for biotransformation. The drug concentrations were measured before and after a 12-h incubation by liquid-chromatography-coupled mass spectrometry (LC–MS); assay type: ADME; set-up: dose 2 uM, timepoint 0 vs 12 hours; details: 2 µM
# [10] = The drug is tested on Ruminococcus gnavus strain: ATCC29149 for biotransformation. The drug concentrations were measured before and after a 12-h incubation by liquid-chromatography-coupled mass spectrometry (LC–MS); details: mediterraneibacter gnavus, 2 µM
# [11] = The drug is tested on Edwardsiella tarda strain: ATCC23685 for biotransformation. The drug concentrations were measured before and after a 12-h incubation by liquid-chromatography-coupled mass spectrometry (LC–MS); details: 2 µM
# [12] = The drug is tested on Providencia stuartii strain: ATCC25827 for biotransformation. The drug concentrations were measured before and after a 12-h incubation by liquid-chromatography-coupled mass spectrometry (LC–MS); details: 2 µM
# [13] = bifidobacterium adolescentis, 12 h, 2 µM
# Description: The drug is tested on Bifidobacterium adolescentis strain: ATCC 15703 for biotransformation. The drug concentrations were measured before and after a 12-h incubation by liquid-chromatography-coupled mass spectrometry (LC–MS)
# [14] = bacteroides fragilis, 12 h, 2 µM
# Description: The drug is tested on Bacteroides fragilis strain: 3397 (T10) for biotransformation. The drug concentrations were measured before and after a 12-h incubation by liquid-chromatography-coupled mass spectrometry (LC–MS)
# [15] = bacteroides intestinalis, 12 h, 2 µM
# Description: The drug is tested on Bacteroides intestinalis strain: DSM17393 for biotransformation. The drug concentrations were measured before and after a 12-h incubation by liquid-chromatography-coupled mass spectrometry (LC–MS)
# [16] = bacteroides thetaiotaomicron, 12 h, 2 µM
# Description: The drug is tested on Bacteroides thetaiotaomicron strain: 3731 for biotransformation. The drug concentrations were measured before and after a 12-h incubation by liquid-chromatography-coupled mass spectrometry (LC–MS)
# [17] = enterocloster bolteae, 12 h, 2 µM
# Description: The drug is tested on Clostridium bolteae strain: ATCCBAA-613 for biotransformation. The drug concentrations were measured before and after a 12-h incubation by liquid-chromatography-coupled mass spectrometry (LC–MS)
# [18] = bacteroides fragilis, 12 h, 2 µM; remark: listed apart in the source
# Description: The drug is tested on Bacteroides fragilis strain: NCTC 9343 for biotransformation. The drug concentrations were measured before and after a 12-h incubation by liquid-chromatography-coupled mass spectrometry (LC–MS)
# [19] = The drug is tested on Bifidobacterium breve strain: DSM20213 for biotransformation. The drug concentrations were measured before and after a 12-h incubation by liquid-chromatography-coupled mass spectrometry (LC–MS); details: 2 µM
# [20] = The drug is tested on Bacteroides fragilis strain: ATCC43859 for biotransformation. The drug concentrations were measured before and after a 12-h incubation by liquid-chromatography-coupled mass spectrometry (LC–MS); details: 2 µM
Structure (SMILES),Bacterial Biotransformation [1],Bacterial Biotransformation [2],Bacterial Biotransformation [3],Bacterial Biotransformation [4],Bacterial Biotransformation [5],Bacterial Biotransformation [6],Bacterial Biotransformation [7],Bacterial Biotransformation [8],Bacterial Biotransformation [9],Bacterial Biotransformation [10],Bacterial Biotransformation [11],Bacterial Biotransformation [12],Bacterial Biotransformation [13],Bacterial Biotransformation [14],Bacterial Biotransformation [15],Bacterial Biotransformation [16],Bacterial Biotransformation [17],Bacterial Biotransformation [18],Bacterial Biotransformation [19],Bacterial Biotransformation [20]
CC(O)(CS(=O)(=O)c1ccc(F)cc1)C(=O)Nc1ccc(C#N)c(C(F)(F)F)c1 (configuration not stated) [BICALUTAMIDE],Compound NOT metabolized,Compound NOT metabolized,Compound NOT metabolized,Compound NOT metabolized,Compound NOT metabolized,Compound NOT metabolized,Compound NOT metabolized,Compound NOT metabolized,Compound NOT metabolized,Compound NOT metabolized,Compound NOT metabolized,Compound NOT metabolized,Compound NOT metabolized,Compound NOT metabolized,Compound NOT metabolized,Compound NOT metabolized,Compound NOT metabolized,–,–,–
C#C[C@]1(OC(C)=O)CC[C@H]2[C@@H]3CCC4=C[C@@H](OC(C)=O)CC[C@@H]4[C@H]3CC[C@@]21C [ETHYNODIOL DIACETATE],Compound NOT metabolized,Compound NOT metabolized,Compound NOT metabolized,Compound NOT metabolized,Compound NOT metabolized,Compound NOT metabolized,–,–,Compound NOT metabolized,–,Compound NOT metabolized,Compound NOT metabolized,Compound NOT metabolized,Compound NOT metabolized,Compound NOT metabolized,Compound NOT metabolized,Compound NOT metabolized,Compound NOT metabolized,–,–
CCN(CC)CCCC(C)Nc1c2ccc(Cl)cc2nc2ccc(OC)cc12 (configuration not stated) [QUINACRINE],Compound NOT metabolized,Compound NOT metabolized,Compound NOT metabolized,Compound NOT metabolized,Compound NOT metabolized,–,–,Compound NOT metabolized,Compound NOT metabolized,–,–,Compound NOT metabolized,Compound NOT metabolized,Compound NOT metabolized,Compound NOT metabolized,Compound NOT metabolized,Compound NOT metabolized,Compound NOT metabolized,Compound NOT metabolized,Compound NOT metabolized
CCN(C)C(=O)Oc1cccc([C@H](C)N(C)C)c1.O=C(O)C(O)C(O)C(=O)O [RIVASTIGMINE TARTRATE],Compound NOT metabolized,Compound NOT metabolized,Compound NOT metabolized,Compound NOT metabolized,Compound NOT metabolized,–,Compound NOT metabolized,Compound NOT metabolized,Compound NOT metabolized,Compound NOT metabolized,Compound NOT metabolized,Compound NOT metabolized,Compound NOT metabolized,Compound NOT metabolized,Compound NOT metabolized,Compound NOT metabolized,–,–,Compound NOT metabolized,Compound NOT metabolized
O=c1n(CCCN2CCN(c3cccc(Cl)c3)CC2)nc2ccccn12 [TRAZODONE],Compound NOT metabolized,Compound NOT metabolized,Compound NOT metabolized,Compound NOT metabolized,Compound NOT metabolized,–,Compound NOT metabolized,Compound NOT metabolized,Compound NOT metabolized,–,Compound NOT metabolized,Compound NOT metabolized,Compound NOT metabolized,Compound NOT metabolized,Compound NOT metabolized,Compound NOT metabolized,Compound NOT metabolized,Compound NOT metabolized,Compound NOT metabolized,Compound NOT metabolized
COc1ccc(C(CN(C)C)C2(O)CCCCC2)cc1 (configuration not stated) [VENLAFAXINE],Compound NOT metabolized,Compound NOT metabolized,Compound NOT metabolized,Compound NOT metabolized,Compound NOT metabolized,–,Compound NOT metabolized,Compound NOT metabolized,Compound NOT metabolized,Compound NOT metabolized,Compound NOT metabolized,Compound NOT metabolized,Compound NOT metabolized,Compound NOT metabolized,Compound NOT metabolized,Compound NOT metabolized,Compound NOT metabolized,Compound NOT metabolized,Compound NOT metabolized,Compound NOT metabolized
N#Cc1ccc2[nH]cc(CCCCN3CCN(c4ccc5oc(C(N)=O)cc5c4)CC3)c2c1 [VILAZODONE],Compound metabolized,Compound NOT metabolized,Compound NOT metabolized,Compound metabolized,Compound metabolized,–,Compound NOT metabolized,Compound NOT metabolized,Compound NOT metabolized,Compound NOT metabolized,Compound NOT metabolized,Compound metabolized,Compound NOT metabolized,Compound metabolized,Compound metabolized,Compound metabolized,Compound NOT metabolized,Compound metabolized,Compound NOT metabolized,Compound metabolized
CS(=O)(=O)O.O.O.O.O=C1Cc2cc(CCN3CCN(c4nsc5ccccc45)CC3)c(Cl)cc2N1 [ZIPRASIDONE MESYLATE],Compound NOT metabolized,Compound NOT metabolized,Compound NOT metabolized,–,Compound NOT metabolized,–,Compound NOT metabolized,–,Compound NOT metabolized,Compound NOT metabolized,Compound NOT metabolized,Compound NOT metabolized,–,Compound NOT metabolized,Compound NOT metabolized,Compound NOT metabolized,Compound NOT metabolized,Compound NOT metabolized,Compound NOT metabolized,Compound NOT metabolized
